# Patent US20140303092A1 (CHIMERIX, INC., priority 2011, published 2014)
# Where “and” joins values, the source holds several entries; their conditions need not be identical. Identical values can stand only once.
# System: CMV
# Experiment: Study HDP-CDV-201: prevention or control of CMV infection in R+ HSCT recipients (efficacy)
# Assay type: in vivo, human (adult allogeneic HSCT recipients)
# Settings: for Rate of CMV Disease or End of Treatment CMV Infection (≧200 copies/ml): missing=infection; for Rate of CMV DNAemia ≧1000 copies/mL during the treatment period: post hoc; for Developed CMV DNAemia (≧100 copies/mL) during the treatment period: plasma CMV DNA negative at baseline
# Method: The clinical study of the current invention (HDP-CDV-201) was a 9-11 week randomized, placebo-controlled, double-blind, dose-escalation study (40 mg weekly [QW], 100 mg QW, 200 mg QW, 200 mg twice-weekly [BIW], and 100 mg BIW) of HDP-CDV for the prevention of CMV infection post-HCT. Treatment was initiated at the time of engraftment and continued until Week 13 post-HCT. HDP-CDV, at various doses, was active and well tolerated in the prevention CMV infection or disease.
# Clinical Studies of HDP-CDV were performed and described in detail in the following Examples. For example, HDP-CDV-201 is a placebo-controlled, dose-escalating trial in HSCT CMV (R+) recipients, evaluating the ability of HDP-CDV to prevent or control CMV infection was carried out. Five cohorts were established in which participants or subjects received either placebo or the HDP-CDV orally, in doses ranging from 40 mg weekly (QW) to 200 mg twice weekly (BIW). Subjects who were post-HSCT were enrolled at the time of engraftment and randomized to HDP-CDV or placebo (3 to 1 ratio) and received blinded therapy until approximately 100 day post-transplantation. HDP-CDV doses were 40 mg QW, 100 mg QW, 200 mg QW, 200 mg BIW and 100 mg BIW. Escalation to the next dose was decided by the data monitoring committee after review of the safety data from the previous Cohort. Subjects who developed CMV disease or CMV infection requiring pre-emptive therapy with local standard of care were discontinued from blinded therapy and followed for 4 weeks. Subjects who completed treatment with blinded therapy were followed for 8 weeks post-therapy.
# The primary endpoint was defined as the incidence of CMV disease at any time during treatment or CMV DNAemia≧200 copies/mL at the end of treatment. All subjects who received at least one dose of drug/placebo and had at least one efficacy evaluation post baseline were included in the primary analysis, regardless of their CMV DNAemia status (negative or positive) at baseline (mITT population). Results for the pooled HDP-CDV Cohorts and for each Cohort separately were analyzed versus that for pooled placebo.
# The primary efficacy measure for this study was treatment failure, defined as the occurrence of CMV infection, defined as CMV DNAemia>200 copies/mL at the End of Treatment or diagnosis of CMV disease at any time during the treatment period. For the analysis, the following definitions apply:
# For subjects who completed the treatment phase of the study, the End of Treatment was defined as the latest assessment from date of the last dose of study drug and up to 7 days for QW dosing, or the date of the last dose of study drug and up to 4 days for BIW dosing. For subjects who discontinued during the treatment phase of the study, the End of Treatment was defined as the date of the last dose of study drug.
# The time to event was defined as the period between FDD and date of first occurrence of the event of interest (inclusive). The events included onset of CMV DNAemia, onset of CMV disease, and discontinuation because of excluded anti-CMV medications. Time to event/onset was derived as (the event/onset date—FDD)+1.
# As detailed in the Statistical Analysis Plan, a modified CMV stratum was defined prior to conducting the statistical analysis based upon polymerase chain reaction (PCR) results from the central laboratory. If any positive CMV DNA value in plasma was collected before the first dose of study drug (including Screening, Pre-dose, (combined Screening/Pre-dose), CMV for stratification, and FDD), then the subject was placed into the modified CMV positive (≧100 copies/mL) stratum, otherwise the subject was in the modified CMV negative stratum. […]
# [1] = 100 mg BIW, modified CMV negative stratum
# [2] = 100 mg BIW, whole study period, CMV DNA negative at baseline
# [3] = 100 mg QW, CMV modified strata: negative
# [4] = 100 mg QW, CMV modified strata: positive
# [5] = 100 mg QW, active treatment period
# [6] = 100 mg QW, modified CMV negative stratum
smiles,measurement,setting,value
CCCCCCCCCCCCCCCCOCCCOP(=O)(O)COC(CO)Cn1ccc(N)nc1=O (stereo not drawn) [HDP-CDV],Incidence of CMV disease or initiation of anti-CMV preemptive therapy,"100 mg BIW, mITT",14%
same,Subjects Receiving Antiviral Therapy and/or had CMV disease,"100 mg BIW, mITT",7 (14.0%) subjects (%)
same,Subjects without a CMV event,"100 mg BIW, mITT",43 (86.0%) subjects (%)
same,"Time to Antiviral Therapy, Median","100 mg BIW, mITT",23.0 days
same,Rate of CMV Disease or End of Treatment CMV Infection (≧200 copies/ml),"100 mg BIW, mITT",10%
same,Rate of CMV DNAemia ≧1000 copies/mL during the treatment period,"100 mg BIW, mITT",8%
same,"Time to Antiviral Therapy, Mean","100 mg BIW, mITT, censored values not included",23.1 days
same,"% CMV Event Rate: Incidence of CMV DNAemia >100 copies/mL During Treatment (Fisher analysis, ref 14.3.3.2.1)",[1],9 (22.5%) subjects (%)
same,"% CMV Event Rate: Incidence of CMV DNAemia ≧1,000 copies/mL at any time during treatment",[1],0 subjects (%)
same,% CMV Event Rate: onset of CMV DNAemia During Whole Study,[1],14 (33.3%) subjects (%)
same,"Combined CMV event rate (CMV disease, viremia requiring treatment, viremia ≧1000 copies/mL)",[1],12.2%
same,"Subjects Who Had CMV-related Event (CMV disease, CMV DNAemia ≧1,000 c/mL or initiation of anti-CMV treatment)",[1],5 (12.2%) subjects (%)
same,Subjects without a CMV-related event,[1],36 (87.8%) subjects (%)
same,Developed CMV DNAemia (≧100 copies/mL) during the treatment period,"100 mg BIW, mITT",10 (23.8.%) N(%) and 10 (23.8%) N(%)
same,"Time to CMV DNAemia (≧100 copies/mL), Median","100 mg BIW, treatment period, CMV DNA negative at baseline",20.0 days
same,"Time to CMV DNAemia (≧100 copies/mL), Mean","100 mg BIW, treatment period, CMV DNA negative at baseline, censored values not included",28.8 days
same,Number of Subjects who had CMV DNAemia (≧100 copies/mL) by the end of study,[2],14
same,"Time to CMV DNAemia (≧100 copies/mL), Mean",[2],42.8 days
same,"Time to CMV DNAemia (≧100 copies/mL), Median",[2],32.5 days
same,"Incidence of composite endpoint (initiation of anti-CMV therapy or CMV disease or CMV DNAemia >1,000 copies/mL)",100 mg QW,21.7%
same,Difference (HDP-CDV minus placebo) in infection rate,[3],−16.7%
same,"Difference (HDP-CDV minus placebo) in rate of CMV DNAemia ≧1,000 copies/ml",[3],−23.2%
same,"Rate of CMV DNAemia ≧1,000 copies/ml during the treatment period",[3],8.7%
same,Rate of CMV Disease or End of Treatment CMV Infection,[3],13.0%
same,"Difference (HDP-CDV minus placebo) in rate of CMV DNAemia ≧1,000 copies/mL",[4],16.7%
same,"Rate of CMV DNAemia ≧1,000 copies/mL during the treatment period",[4],100.0%
same,Rate of CMV Disease or End of Treatment CMV Infection,"100 mg QW, aGVHD randomization strata: negative",24.0%
same,Difference (HDP-CDV minus placebo) in infection rate,"100 mg QW, aGVHD strata: negative",−8.1%
same,Discontinuation: Emergence of CMV disease,[5],3 Subject n (%) and 3 (11.1%) Subject n (%)
same,Discontinuation: Initiation of alternate CMV therapy,[5],4 (14.8%) Subject n (%)
same,Difference (HDP-CDV minus placebo) in rate of CMV DNAemia ≧1000 copies/mL,"100 mg QW, mITT",−20.2%
same,Difference (HDP-CDV minus placebo) in rate of CMV disease or end of treatment CMV infection,"100 mg QW, mITT",−15.1%
same,Subjects Receiving Antiviral Therapy and/or had CMV disease,"100 mg QW, mITT",7 (25.9%) subjects (%)
same,Subjects without a CMV event,"100 mg QW, mITT",20 (74.1%) subjects (%)
same,"Time to Antiviral Therapy, Median","100 mg QW, mITT",41.0 days
same,Rate of CMV Disease or End of Treatment CMV Infection (≧200 copies/ml),"100 mg QW, mITT",22% and 22.2%
same,Rate of CMV DNAemia ≧1000 copies/mL during the treatment period,"100 mg QW, mITT",22.2%
same,"Time to Antiviral Therapy, Mean","100 mg QW, mITT, censored values not included",41.9 days
same,"% CMV Event Rate: Incidence of CMV DNAemia >100 copies/mL During Treatment (Fisher analysis, ref 14.3.3.2.1)",[6],5 (21.7%) subjects (%)
same,"% CMV Event Rate: Incidence of CMV DNAemia ≧1,000 copies/mL at any time during treatment",[6],2 (8.7%) subjects (%)
same,% CMV Event Rate: onset of CMV DNAemia During Whole Study,[6],8 (34.8%) subjects (%)
same,"Subjects Who Had CMV-related Event (CMV disease, CMV DNAemia ≧1,000 c/mL or initiation of anti-CMV treatment)",[6],5 (21.7%) subjects (%)
same,Subjects without a CMV-related event,[6],18 (78.3%) subjects (%)
same,Developed CMV DNAemia (≧100 copies/mL) during the treatment period,"100 mg QW, mITT",5 (21.7%) N(%)
same,"Time to CMV DNAemia (≧100 copies/mL), Median","100 mg QW, treatment period, CMV DNA negative at baseline",30.0 days
